# Like-named read-outs stand apart in the source and are kept apart here.
# Assays:
# [1] = format: physicochemical; settings: for ThT Cat. / ThT-Fluorescence (categorical): ThT-active if fluorescence at least twice the control
# How it was run: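 Fibrils (1 mg/mL solution) were mixed with 50 µM ThT in PBS for 15 min at RT, and fluorescence was read at λex 440/λem 488 nm against a PBS blank, as a triplicate mean ± SD. Zeta potential came from electrophoretic mobility (Smoluchowski) after 1 d aggregation at 1 mg/mL in PBS pH 7.4, diluted into 1 mM KCl.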
# [2] = format: physicochemical; set-up: key to Fibril / Fibril Formation / TEM 2cat / Fibril: 1 = fibrils present; 0 non-fibrillar structures; settings: for Fibril / Fibril Formation: 1 mg/mL, uranyl acetate stain, qualitative
# [3] = ThT fluorescence relative to blank (42.1851851851852 a.u.)
# [4] = relative to blank 42.1851851851852 a.u.
# [5] = ThT fluorescence relative to blank, blank = 42.1851851851852
# [6] = TEM, 1 = fibrils present, 0 = non-fibrillar
# [7] = TEM, 1 = fibrils present, 0 = non-fibrillar structures
# [8] = category: fibrils present or non-fibrillar
# [9] = ThT fluorescence category, 1 if Rel. ThT >2
# [10] = FigS12 panel A, fibril category by TEM
# [11] = Fig S10 panel D, fibril category by TEM
Substance,"Tht rel to blank (42.1851851851852) [1, 3]",Tht category (> 1.5 to blank = +) ([1]; category 1/0),"Tht rel to blank (42.1851851851852) [1, 4]","TEM: 1= fibrils, 0= aggregates (micelle), 0.5 = aggregates and fibrils, -1 = nothing obersved, STD prep [2]",further results
KAKAQANM [TM152],1.082,0 (ThT-inactive (N-Fold <2)),1.082,0.5,–
CKFKQFFNM [CK14],45.97,"1 (ThT. Cat is 1, if Rel. ThT >2)",45.97,1,"Tht rel to blank (42.1851851851852) [1, 5]: 45.97"
CKIKQIINM [BL1],14.67,"1 (ThT. Cat is 1, if Rel. ThT >2)",14.67,1,"Tht rel to blank (42.1851851851852) [1, 5]: 14.67"
KFKFQFNMWQ [JG4],2.807,"1 (ThT. Cat is 1, if Rel. ThT >2)",2.807,1,"Tht category (> 1.5 to blank = +) ([1]; FigS26): 1 (Tht category (> 1.5 to blank = +)); Tht category (> 1.5 to blank = +) ([1]; category from ThT rel to blank): 1 (ThT. Cat is 1, if Rel. ThT >2); TEM: 1= fibrils, 0= aggregates (micelle), 0.5 = aggregates and fibrils, -1 = nothing obersved, STD prep ([2]; TEM): 1"
QCKIKIQINMWQ [EF-C opt],9.054,"1 (ThT. Cat is 1, if Rel. ThT >2)",9.054,1,–
KIKQIINMWQ [JG2],4.945,"1 (ThT. Cat is 1, if Rel. ThT >2)",–,1,"Tht category (> 1.5 to blank = +) ([1]; FigS26): 1 (Tht category (> 1.5 to blank = +)); Tht rel to blank (42.1851851851852) [1, 5]: 4.945; TEM: 1= fibrils, 0= aggregates (micelle), 0.5 = aggregates and fibrils, -1 = nothing obersved, STD prep ([2]; FigS26): 1"
CEFEFQFNMWQ [TM140],6.057,"1 (ThT. Cat is 1, if Rel. ThT >2)",6.057,1,–
CRFRVPF [CN8],–,0 (ThT-inactive (N-Fold <2)),0.9438,0,–
KWKWQW [KB3],–,0 (ThT-inactive (N-Fold <2)),1.518,0,–
KFKFQFNMW,–,–,–,–,"Tht category (> 2 to blank = +) ([1]; Fig S10 panel D): 0 (ThT-inactive (N-Fold <2)); ThT Cat, ([1]; ThT category, 1 if Rel. ThT >2): 0 (ThT-inactive (N-Fold <2)); ThT Cat. ([1]; ThT category, 1 if Rel. ThT >2): 0 (ThT-inactive (N-Fold <2)); ThT Cat. / ThT-Fluorescence (categorical) [1]: 0 (ThT-inactive (N-Fold <2)); TEM 2cat ([2]; Fig S10 panel D): 1; Fibril / Fibril Formation ([2]; TEM): 1; Fibril [2, 6]: 1; Fibril [2, 7]: 1; TEM 2cat [2, 8]: 1"
CKIKQII [MG4a],3.914,"1 (ThT. Cat is 1, if Rel. ThT >2)",3.914,0.5,"Tht rel to blank (42.1851851851852) [1, 5]: 3.914"
KFKFQFW [TM71],3.529,"1 (ThT. Cat is 1, if Rel. ThT >2)",3.529,1,"Tht rel to blank (42.1851851851852) [1, 5]: 3.529"
KIKQIINM [JGA2],1.176,–,–,1,–
QCKFKQFFNM [CK11],12.72,"1 (ThT. Cat is 1, if Rel. ThT >2)",12.72,0.5,"Tht rel to blank (42.1851851851852) [1, 5]: 12.72"
QCKFKFQFNMWQ [CK7],1.854,0 (ThT-inactive (N-Fold <2)),1.854,1,–
CKFKFQFNMWQ [BL2],2.427,"1 (ThT. Cat is 1, if Rel. ThT >2)",2.427,1,–
KLKQLL,–,–,–,–,"Tht category (> 2 to blank = +) ([1]; Fig S10 panel D): 0 (ThT-inactive (N-Fold <2)); Tht category (> 2 to blank = +) ([1]; FigS12 panel A): 0 (ThT-inactive (N-Fold <2)); ThT Cat, ([1]; FigS12 panel B): 0 (ThT-inactive (N-Fold <2)); ThT Cat, ([1]; ThT category, 1 if Rel. ThT >2): 0 (ThT-inactive (N-Fold <2)); ThT Cat. [1, 9]: 0 (ThT-inactive (N-Fold <2)); ThT Cat. / ThT-Fluorescence (categorical) [1]: 0 (ThT-inactive (N-Fold <2)); TEM 2cat ([2]; Fig S10 panel D): 0; TEM 2cat [2, 10]: 0; Fibril ([2]; FigS12 panel B, TEM): 0; Fibril / Fibril Formation ([2]; TEM): 0; Fibril [2, 6]: 0; Fibril [2, 7]: 0"

Substance,"Tht rel to blank (42.1851851851852) [1, 3]",Tht category (> 1.5 to blank = +) ([1]; category 1/0),"Tht rel to blank (42.1851851851852) [1, 4]","TEM: 1= fibrils, 0= aggregates (micelle), 0.5 = aggregates and fibrils, -1 = nothing obersved, STD prep [2]",further results
MKFKFQF [DF5 / CK16],–,0 (ThT-inactive (N-Fold <2)),0.9846,1,–
CEIEIQI [AR2/ TM142],2.23,"1 (ThT. Cat is 1, if Rel. ThT >2)",2.23,1,–
CEIEIQINMWQ [TM143],3.705,"1 (ThT. Cat is 1, if Rel. ThT >2)",3.705,0.5,–
CKFKFQF [BL4],2.251,"1 (ThT. Cat is 1, if Rel. ThT >2)",2.251,1,–
RGDKIKIQI,–,–,–,–,"Tht category (> 2 to blank = +) ([1]; Fig S10 panel D): 1 (ThT. Cat is 1, if Rel. ThT >2); Tht category (> 2 to blank = +) ([1]; FigS12 panel A): 1 (ThT. Cat is 1, if Rel. ThT >2); ThT Cat, ([1]; FigS12 panel B): 1 (ThT. Cat is 1, if Rel. ThT >2); ThT Cat, ([1]; ThT category, 1 if Rel. ThT >2): 1 (ThT. Cat is 1, if Rel. ThT >2); ThT Cat. [1, 9]: 1 (ThT. Cat is 1, if Rel. ThT >2); ThT Cat. / ThT-Fluorescence (categorical) [1]: 1 (ThT. Cat is 1, if Rel. ThT >2); TEM 2cat [2, 11]: 1; TEM 2cat [2, 10]: 1; Fibril ([2]; FigS12 panel B, TEM): 1; Fibril / Fibril Formation ([2]; TEM): 1; Fibril [2, 6]: 1; Fibril [2, 7]: 1"
MKIKIQINMWQ [TM52],4.061,"1 (ThT. Cat is 1, if Rel. ThT >2)",4.061,1,–
CSISIQINM [TM145],–,"1 (ThT. Cat is 1, if Rel. ThT >2)",5.919,0.5,–
KIKQII [msis21],1.001,0 (ThT-inactive (N-Fold <2)),–,0,"Tht rel to blank (42.1851851851852) [1, 5]: 1.001"
QCKFKQFFNMWQ [CK10],25.38,"1 (ThT. Cat is 1, if Rel. ThT >2)",25.38,0.5,"Tht rel to blank (42.1851851851852) [1, 5]: 25.38"
RGDKIKIQI [MG14],5.578,"1 (ThT. Cat is 1, if Rel. ThT >2)",5.578,1,Tht category (> 1.5 to blank = +) ([1]; FigS26): 1 (Tht category (> 1.5 to blank = +))
KFKFQF [JJA6],1.156,0 (ThT-inactive (N-Fold <2)),1.156,0.5,–
CKIKIQINMWQ,–,–,–,–,"Tht category (> 2 to blank = +) ([1]; Fig S10 panel D): 1 (ThT. Cat is 1, if Rel. ThT >2); ThT Cat. ([1]; Fig S10 panel E): 1 (ThT. Cat is 1, if Rel. ThT >2); ThT Cat, ([1]; ThT category, 1 if Rel. ThT >2): 1 (ThT. Cat is 1, if Rel. ThT >2); ThT Cat. [1, 9]: 1 (ThT. Cat is 1, if Rel. ThT >2); ThT Cat. / ThT-Fluorescence (categorical) [1]: 1 (ThT. Cat is 1, if Rel. ThT >2); TEM 2cat [2, 11]: 1; Fibril ([2]; Fig S10 panel E): 1; Fibril / Fibril Formation ([2]; TEM): 1; Fibril [2, 6]: 1; Fibril [2, 7]: 1; TEM 2cat [2, 8]: 1"
RGDKIKIQIC [MG7/CN1],19.76,"1 (ThT. Cat is 1, if Rel. ThT >2)",19.76,1,Tht category (> 1.5 to blank = +) ([1]; FigS26): 1 (Tht category (> 1.5 to blank = +))
KAKAKAQA [TG15],1.151,0 (ThT-inactive (N-Fold <2)),–,0,"Tht rel to blank (42.1851851851852) [1, 5]: 1.151"
CKIKIQINMWQ [MG1],4.566,"1 (ThT. Cat is 1, if Rel. ThT >2)",4.566,1,–
QCKFKFQFNM [CK8],2.317,"1 (ThT. Cat is 1, if Rel. ThT >2)",2.317,1,–
